Experimental data reported in patent US12410171B2, “Tropomyosin receptor kinase (TRK) degradation compounds and methods of use” (Cullgen (Shanghai), Inc., priority 2020, dated 2025).
Where two headings read alike, the source gives them in different places.

Columns and labels:
TPM3-TRKA fusion protein = biological target: T1, TPM3-TRKA fusion protein (Homo sapiens, UniProt P04629); experiment: TPM3-TRKA fusion protein levels in KM12 cells (Western blot); assay type: cell-based; conditions: 16 h, read-out: Degradation (at 10 nM)
T1 construct: The resulted chimeric proteins always retain the kinase domain of TRK proteins; TPM3 (fusion partner, N-terminal part of tropomyosin alpha-3, P06753); endogenous in cells; host or cells: KM12 colon cancer cells; the other entry of the earlier key: TPM3 (P06753, Tropomyosin alpha-3 chain)
Outline: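 TPM3-TRKA levels were assessed by Western blot with chemiluminescent detection and band densitometry, after SDS-PAGE of BCA-normalized RIPA lysates. Before lysis, KM12 cells received DMSO, compounds or matched control compounds at concentrations including 0.1, 1, 10 and 100 nM and 0.4–30 nM. Exposures lasted 4 h, 8–16 h or 16 h.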

KM12 cells = experiment: KM12 cell viability (CellTiter-Glo); assay type: cell-based; conditions: Homo sapiens, 72 h, KM12 cell viability, CellTiter-Glo, read-out: IC50
Outline: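 Three-day exposure of KM12 cells (5000/well, RPMI 1640 with 10% FBS, 37 °C, 5% CO2) to compound dilution series, 3-fold over 8 or 11 points (top 1000 nM in the 8-point format) or 2-fold over 12. CellTiter-Glo readout, with IC50 fitted by nonlinear least-squares regression.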

[1] = TPM3-TRKA degradation in KM12 cells at 10 nM compound, category of percentage degradation

T1 sequence (P04629 with tags, fused parts or gaps): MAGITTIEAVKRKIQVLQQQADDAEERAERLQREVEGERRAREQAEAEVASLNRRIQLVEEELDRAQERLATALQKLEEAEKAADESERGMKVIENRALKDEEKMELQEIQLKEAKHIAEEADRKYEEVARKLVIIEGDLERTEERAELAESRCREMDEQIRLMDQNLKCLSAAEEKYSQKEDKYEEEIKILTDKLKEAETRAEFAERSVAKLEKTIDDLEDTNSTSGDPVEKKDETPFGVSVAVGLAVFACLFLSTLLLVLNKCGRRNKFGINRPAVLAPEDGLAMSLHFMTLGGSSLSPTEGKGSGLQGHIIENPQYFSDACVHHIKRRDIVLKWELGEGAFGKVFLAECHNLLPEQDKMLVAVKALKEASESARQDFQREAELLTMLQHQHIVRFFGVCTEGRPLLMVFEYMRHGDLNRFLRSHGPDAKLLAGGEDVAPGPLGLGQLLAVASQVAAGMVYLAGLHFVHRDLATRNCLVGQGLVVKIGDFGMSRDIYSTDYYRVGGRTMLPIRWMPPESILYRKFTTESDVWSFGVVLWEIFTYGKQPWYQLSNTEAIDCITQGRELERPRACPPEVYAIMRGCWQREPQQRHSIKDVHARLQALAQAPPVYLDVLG

Row | Compound | percent degradation of TPM3-TRKA protein at 0.01 µM (TPM3-TRKA fusion protein; [1]) [%] | percent degradation of TPM3-TRKA protein at 0.01 µM (TPM3-TRKA fusion protein; TPM3-TRKA degradation in KM12 cells at 10 nM) [%] | IC50 (KM12 cells; three days treatment) [nM] | IC50 (KM12 cells; 11-point 3-fold serial dilution, 3 days) [nM]
1 | O=C1CCC(N2C(=O)c3ccc(CN4CC(N5CCN(c6cccc(-c7cnc8ccc(N9CCC[C@@H]9c9cccc(F)c9)nn78)n6)CC5)C4)cc3C2=O)C(=O)N1 (stereo partly drawn) [TR-237, 2-(2,6-dioxopiperidin-3-yl)-5-((3-(4-(6-(6-((R)-2-(3-fluorophenyl)pyrrolidin-1-yl)imidazo[1,2-b]pyridazin-3-yl)pyridin-2-yl)piperazin-1-yl)azetidin-1-yl)methyl)isoindoline-1,3-dione] | > 80 | – | 138 | –
2 | O=C1CCC(N2C(=O)c3ccc(N4CC(CN5CCN(c6ccc(C(=O)Nc7n[nH]c8ccc(Cc9cc(F)cc(F)c9)cc78)c(NCCF)c6)CC5)C4)cc3C2=O)C(=O)N1 (centres unmarked) [TR-267, N-(5-(3,5-difluorobenzyl)-1H-indazol-3-yl)-4-(4-((1-(2-(2,6-dioxopiperidin-3-yl)-1,3-dioxoisoindolin-5-yl)azetidin-3-yl)methyl)piperazin-1-yl)-2-((2-fluoroethyl)amino)benzamide] | > 80 | – | 11.7 | –
3 | O=C1CCC(N2C(=O)c3ccc(NCCCCCCCC(=O)N4CCC(Nc5cccc(C(=O)Nc6cnn7ccc(N8CCC[C@@H]8c8cc(F)ccc8F)nc67)n5)CC4)cc3C2=O)C(=O)N1 (stereo partly drawn) [CPD-472, N-(5-((R)-2-(2,5-difluorophenyl)pyrrolidin-1-yl)pyrazolo[1,5-a]pyrimidin-3-yl)-6-((1-(8-((2-(2,6-dioxopiperidin-3-yl)-1,3-dioxoisoindolin-5-yl)amino)octanoyl)piperidin-4-yl)amino)picolinamide] | – | > 80 | – | 37
4 | O=C1CCC(N2C(=O)c3ccc(N4CC(C(=O)N5CCN(c6cccc(-c7cnc8ccc(N9CCC[C@@H]9c9cccc(F)c9)nn78)n6)CC5)C4)cc3C2=O)C(=O)N1 (stereo partly drawn) [TR-211, 2-(2,6-dioxopiperidin-3-yl)-5-(3-(4-(6-(6-((R)-2-(3-fluorophenyl)pyrrolidin-1-yl)imidazo[1,2-b]pyridazin-3-yl)pyridin-2-yl)piperazine-1-carbonyl)azetidin-1-yl)isoindoline-1,3-dione] | > 80 | – | 2 | –

Second part, led by results:

Row | percent degradation of TPM3-TRKA protein at 0.01 µM (TPM3-TRKA fusion protein; [1]) [%] | percent degradation of TPM3-TRKA protein at 0.01 µM (TPM3-TRKA fusion protein; TPM3-TRKA degradation in KM12 cells at 10 nM) [%] | Compound | IC50 (KM12 cells; three days treatment) [nM] | IC50 (KM12 cells; 11-point 3-fold serial dilution, 3 days) [nM]
5 | > 80 | – | O=C1CCC(N2Cc3ccc(N4CC(CN5CCN(c6cccc(-c7cnc8ccc(N9CCC[C@@H]9c9cccc(F)c9)nn78)n6)CC5)C4)cc3C2=O)C(=O)N1 (stereo partly drawn) [TR-317, 3-(6-(3-((4-(6-(6-((R)-2-(3-fluorophenyl)pyrrolidin-1-yl)imidazo[1,2-b]pyridazin-3-yl)pyridin-2-yl)piperazin-1-yl)methyl)azetidin-1-yl)-1-oxoisoindolin-2-yl)piperidine-2,6-dione] | 5 | –
6 | > 80 | – | O=C1CCC(N2C(=O)c3ccc(C4CN(C5CCN(c6ccc(C(=O)Nc7n[nH]c8ccc(Cc9cc(F)cc(F)c9)cc78)c(NC7CCOCC7)c6)CC5)C4)cc3C2=O)C(=O)N1 (centres unmarked) [TR-339, N-(5-(3,5-difluorobenzyl)-1H-indazol-3-yl)-4-(4-(3-(2-(2,6-dioxopiperidin-3-yl)-1,3-dioxoisoindolin-5-yl)azetidin-1-yl)piperidin-1-yl)-2-((tetrahydro-2H-pyran-4-yl)amino)benzamide] | 8.1 | –
7 | 50 to 80 | – | O=C1CCC(N2Cc3cc(N4CC(CN5CCN(c6ccc(C(=O)Nc7n[nH]c8ccc(Cc9cc(F)cc(F)c9)cc78)c(NC7CCOCC7)c6)CC5)C4)ccc3C2=O)C(=O)N1 (stereo not drawn) [TR-300, N—(S-(3,5-Difluorobenzyl)-1H-indazol-3-yl)-4-(4-((1˜ (2˜ (2,6-dioxopiperidin-3-yl)-1-oxoisoindolin-5-yl)azetidin-3-yl)methyl)piperazin-1-yl)-2-((tetrahydro-2H-pyran-4-yl)amino)benzamide] | 53 | –
